From patent US12497365B2, “4-pyridinyl formamide compound or derivative thereof, preparation method therefor, herbicidal composition and use thereof” (Qingdao Kingagroot Chemical Compound Co., Ltd., priority 2019, dated 2025)

Experiments:
Test in all cases: Weeding effect in post-emergence stage
Assay type in all cases: in vivo
Conditions in all cases: active ingredient 2000 g/ha, 3 weeks after application, fresh weight control rate
[1] = test system: Abutilon theophrasti
How it was run: (§1)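 Greenhouse post-emergence test: 2-3 leaf plants sprayed at 125-2000 g/ha, then fresh weight control rate scored at 3 weeks.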

[2] = test system: Amaranthus retroflexus L.
How it was run: as §1

[3] = test system: Chenopodium album
How it was run: as §1

[4] = test system: Descurainia sophia
How it was run: as §1

Compound	Weeding effect, activity level (growth control rate), Abutilon theophrasti [1]	Weeding effect, activity level (growth control rate), Amaranthus retroflexus L. [2]	Weeding effect, activity level (growth control rate), Chenopodium album [3]	Weeding effect, activity level (growth control rate), Descurainia sophia [4]
Cn1nnnc1NC(=O)c1ccnc(-c2ccc(F)cc2)c1C=C(F)F [Compound 1-222]	5 (Level 5: growth control rate is above 85%)	5 (Level 5: growth control rate is above 85%)	5 (Level 5: growth control rate is above 85%)	5 (Level 5: growth control rate is above 85%)
Cn1nnnc1NC(=O)c1ccnc(-c2ccc(F)cc2)c1-c1ccc(F)cc1 [Compound 1-223]	5 (Level 5: growth control rate is above 85%)	5 (Level 5: growth control rate is above 85%)	5 (Level 5: growth control rate is above 85%)	5 (Level 5: growth control rate is above 85%)
Cn1nnnc1NC(=O)c1ccnc(-c2cscn2)c1Cl [Compound 1-228]	5 (Level 5: growth control rate is above 85%)	5 (Level 5: growth control rate is above 85%)	5 (Level 5: growth control rate is above 85%)	5 (Level 5: growth control rate is above 85%)
Cn1nnnc1NC(=O)c1ccnc(-c2cncs2)c1Cl [Compound 1-229]	5 (Level 5: growth control rate is above 85%)	5 (Level 5: growth control rate is above 85%)	5 (Level 5: growth control rate is above 85%)	5 (Level 5: growth control rate is above 85%)
Cn1nnnc1NC(=O)c1ccnc(-c2nccs2)c1Cl [Compound 1-230]	5 (Level 5: growth control rate is above 85%)	5 (Level 5: growth control rate is above 85%)	5 (Level 5: growth control rate is above 85%)	5 (Level 5: growth control rate is above 85%)
Cn1ccnc1-c1nccc(C(=O)Nc2nnnn2C)c1Cl [Compound 1-233]	5 (Level 5: growth control rate is above 85%)	5 (Level 5: growth control rate is above 85%)	5 (Level 5: growth control rate is above 85%)	5 (Level 5: growth control rate is above 85%)
Cn1cncc1-c1nccc(C(=O)Nc2nnnn2C)c1Cl [Compound 1-234]	5 (Level 5: growth control rate is above 85%)	5 (Level 5: growth control rate is above 85%)	5 (Level 5: growth control rate is above 85%)	5 (Level 5: growth control rate is above 85%)
Cc1nnc(-c2nccc(C(=O)Nc3nnnn3C)c2Cl)s1 [Compound 1-249]	5 (Level 5: growth control rate is above 85%)	5 (Level 5: growth control rate is above 85%)	5 (Level 5: growth control rate is above 85%)	5 (Level 5: growth control rate is above 85%)
CCn1nnnc1NC(=O)c1ccnc(-c2ccc(F)cc2)c1Cl [Compound 1-307]	5 (Level 5: growth control rate is above 85%)	5 (Level 5: growth control rate is above 85%)	5 (Level 5: growth control rate is above 85%)	5 (Level 5: growth control rate is above 85%)
Cn1ncnc1NC(=O)c1ccnc(-c2ccc(F)cc2)c1Cl [Compound 1-334]	5 (Level 5: growth control rate is above 85%)	5 (Level 5: growth control rate is above 85%)	5 (Level 5: growth control rate is above 85%)	5 (Level 5: growth control rate is above 85%)
Cc1nnc(NC(=O)c2ccnc(-c3ccc(F)cc3)c2Cl)n1C [Compound 1-650]	5 (Level 5: growth control rate is above 85%)	5 (Level 5: growth control rate is above 85%)	5 (Level 5: growth control rate is above 85%)	5 (Level 5: growth control rate is above 85%)
Cc1nnc(NC(=O)c2ccnc(-c3ccc(F)cc3)c2Cl)o1 [Compound 1-962]	5 (Level 5: growth control rate is above 85%)	5 (Level 5: growth control rate is above 85%)	5 (Level 5: growth control rate is above 85%)	5 (Level 5: growth control rate is above 85%)
O=C(Nc1nnc(C2CC2)o1)c1ccnc(-c2ccc(F)cc2)c1Cl [Compound 1-1257]	5 (Level 5: growth control rate is above 85%)	5 (Level 5: growth control rate is above 85%)	5 (Level 5: growth control rate is above 85%)	5 (Level 5: growth control rate is above 85%)
O=C(Nc1ccon1)c1ccnc(-c2ccc(F)cc2)c1Cl [Compound 1-1286]	5 (Level 5: growth control rate is above 85%)	5 (Level 5: growth control rate is above 85%)	5 (Level 5: growth control rate is above 85%)	5 (Level 5: growth control rate is above 85%)
Cc1conc1NC(=O)c1ccnc(-c2ccc(F)cc2)c1Cl [Compound 1-1577]	5 (Level 5: growth control rate is above 85%)	5 (Level 5: growth control rate is above 85%)	5 (Level 5: growth control rate is above 85%)	5 (Level 5: growth control rate is above 85%)
O=C(Nc1ncco1)c1ccnc(-c2ccc(F)cc2)c1Cl [Compound 1-1607]	5 (Level 5: growth control rate is above 85%)	5 (Level 5: growth control rate is above 85%)	5 (Level 5: growth control rate is above 85%)	5 (Level 5: growth control rate is above 85%)
C=Cc1ccc(-c2nccc(C(=O)Nc3nnnn3C)c2Cl)cc1 [Compound 1-1918]	5 (Level 5: growth control rate is above 85%)	5 (Level 5: growth control rate is above 85%)	5 (Level 5: growth control rate is above 85%)	5 (Level 5: growth control rate is above 85%)
CN(C)C(=O)c1ccc(-c2nccc(C(=O)Nc3nnnn3C)c2Cl)cc1 [Compound 1-1925]	5 (Level 5: growth control rate is above 85%)	5 (Level 5: growth control rate is above 85%)	5 (Level 5: growth control rate is above 85%)	5 (Level 5: growth control rate is above 85%)
Cn1nnnc1NC(=O)c1ccnc(-c2cccc3c2OC(F)(F)O3)c1Cl [Compound 1-1972]	5 (Level 5: growth control rate is above 85%)	5 (Level 5: growth control rate is above 85%)	5 (Level 5: growth control rate is above 85%)	5 (Level 5: growth control rate is above 85%)
Cn1nnnc1NC(=O)c1ccnc(-c2ccc(CNC(=O)OC(C)(C)C)s2)c1Cl [Compound 1-2004]	5 (Level 5: growth control rate is above 85%)	5 (Level 5: growth control rate is above 85%)	5 (Level 5: growth control rate is above 85%)	5 (Level 5: growth control rate is above 85%)
Cn1nnnc1NC(=O)c1ccnc(-c2ccc[nH]2)c1Cl [Compound 1-2006]	5 (Level 5: growth control rate is above 85%)	5 (Level 5: growth control rate is above 85%)	5 (Level 5: growth control rate is above 85%)	5 (Level 5: growth control rate is above 85%)
Cn1nnnc1NC(=O)c1ccnc(-c2cc3ccccc3o2)c1Cl [Compound 1-2010]	5 (Level 5: growth control rate is above 85%)	5 (Level 5: growth control rate is above 85%)	5 (Level 5: growth control rate is above 85%)	5 (Level 5: growth control rate is above 85%)
